{
  "source": "patent US20250057791A1",
  "about": "“PROTECTION AGAINST ARTHROPOD PARASITES WITH PURINERGIC RECEPTOR (OPR) ANTAGONISTS” (priority 2021, published 2025)",
  "key": {"A. stephensi": {"system": "A. stephensi", "assay": "Membrane feeding assay, A. stephensi", "format": "in vivo, Anopheles stephensi", "settings": "for effect on feeding on solution containing ATP, in words: doses as in Table 8", "procedure": "Experiments with A. gambiae and A. stephensi were made in a climate chamber at 28° C. and 80% RH during the last 6 hours of scotophase. As a sugar meal can interfere with the blood meal by reducing the number of females that feed, the sucrose solution supplied in rearing cages to mosquitoes employed for feeding experiments was reduced to 5%. […] The 5% sucrose solution was presented to mosquitoes from emergence on four 1 cm diam. cotton dental rolls (Hartmann A G, Neuhausen, Switzerland) inserted in 10 ml upturned glass vials placed in holes at each corner of the rearing cage ceiling. Cotton rolls were turned daily in vials and renewed every two days. Mosquitoes were not fed blood and were deprived of sucrose 17 to 20 hours before experiments. Thirty min before a feeding experiment, between 10-25, 6-day-old females that responded to activation by human breath were removed with a mouth aspirator from the rearing cage wall and placed in polystyrol cylinders with the floor cut out (10 cm dm×15 cm high; Semadeni, Ostermundigen, Switzerland) that served as feeding cages. Each cage was covered with mosquito netting at one end and a soft polyurethane lid at the other.\nMosquitoes were fed for 30 min using a feeding system (Hemotek®, Hemotek Ltd, Blackburn, UK) consisting of 3.5 ml stainless steel reservoirs 37 mm in diameter covered with a 60-90 μm thick silicone-impregnated membrane (Kröber and Guerin, 2007 in “Feeding assays for hard ticks”, Trends in parasitology 23, 445-449; doi 10.1016/j.pt.2007.07.010). Feeding reservoirs reached a temperature of 37° C. within 10 min and were placed on the netting of feeding cages. Mosquitoes were activated using a 200 ms pulse of pure CO2 (volume 6.25 ml) from a pressurised cylinder (Carbagas, Switzerland) using a solenoid valve that caused the CO2 level in the feeding cage to rise to at least 1,500 ppm. Between 3 and 4 sets of 10 feeding cages held in a custom-built Ertacetal® POM frame were tested per day, depending of the number of female mosquitoes available from the colony.\nAll compounds were tested in a mosquito feeding solution (FS) consisting of 25 mM dextrose, 25 mM NaCl buffered with 8.93 mM NaHCO3 adjusted to pH 7.4. Feeding responses of A. gambiae and A. stephensi to ATP as a function of dose were tested with between 7 to 10 feeding cages per dose. Each feeding experiment with an antagonist systematically included a treatment containing the FS as negative control along with a treatment containing the FS […] These positive and negative controls permitted to monitor any effect of experimental day on feeding responses as a function of dose for antagonists that were recorded over several days. […] Four to 10 cages each with 10 to 29 mosquitoes were tested per antagonist dose. […] The number of feeding cages used to test other compounds and their mixtures as feeding stimulants or as feeding inhibitors is listed on Table 6. The percentage of fed mosquitoes was estimated by visual inspection of abdominal distention that is indicative of engorgement.\nPairwise comparisons of A. gambiae electrophysiological (EP) responses to ATP and adenosine alone and combined with a given dose of PR antagonist, EP responses to ATP alone and combined with a given dose of a metal modulator, and EP responses to ATP prior to and after exposure of a sensillum to a given dose of a PR antagonist were made with a one-tailed Wilcoxon signed-rank test for data showing a non-normal distribution, with a paired Student's t-test for normally distributed data showing homogeneous variance and with a Welch's t-test for normally distributed data showing non-homogeneous variance. […]"}, "Haematobia irritans": {"system": "Haematobia irritans", "assay": "Membrane feeding assay, horn fly Haematobia irritans", "format": "in vivo", "settings": "for effect on feeding on solutions containing ATP, in words: doses as in Table 10", "procedure": "Flies of both species were transferred 30 min before feeding experiments to feeding cages as used for mosquitoes at 24° C., 80% RH in an environmental cabinet. Teneral tsetse were fed at 2 to 4 days old during the photophase with between 7 and 13 flies per feeding cage, covered with a black cloth. Horn flies were tested at 1 and 2 days old in the photophase with between 6 and 21 flies per cage. Both fly species were fed using small Hemotek feeding reservoirs (29 mm diameter, 1 ml) equipped with a membrane as for mosquitoes. Horn flies were fed for 15 min with feeding reservoirs placed on the cage. For tsetse, cages were closed with black mosquito netting at the bottom to allow flies to feed through the membrane placed under the cage. Feeding time (1.5 to 6 min) for tsetse was adjusted as a function of age to achieve at least 30% feeding on the positive control included in each feeding experiment. The positive control for both fly species contained 150 mM NaCl, 8.9 mM NaHCO3 with 100 μM ATP added, hereafter termed fly feeding solution (FFS). The pH of the FFS was adjusted as for ticks. The effect of TMP on feeding by G. pallidipes was also tested at 16 μg TMP/cm^2 dissolved in 140 μl hexane and applied homogeneously to the membrane surface using a micropipette. Hexane was used to treat the membrane with TMP to avoid the test compound being dispersed by fly wing-fanning. Flies of both species were activated just prior to feeding on a treatment by exhalation into the cage. Tsetse that had fed were identified with swollen abdomens and counted at the end of a feeding experiment. Since it was difficult to ascertain by eye whether a horn fly had fed on a treatment, 10 μl/ml of blue food colorant (No. 4866908, Trawosa AG, St. Gallen, Switzerland) was added. This facilitated the detection of ingested liquid when the abdomen of flies, killed by freezing, was squashed onto filter paper. Only experiments in which the feeding rate by flies was >30% on the positive control were included in analyses.\nUptake of TFS containing PR antagonists, converted to mg/h for hard ticks and weight gains in mg/25 min for soft ticks, was compared to TFS uptake in the corresponding positive controls. […] For tsetse and horn flies the percentage flies that fed per antagonist treatment served as the criterion for inhibition of feeding. As horn fly sexes emerged within 24 h, both sexes were assumed to show the same degree of appetence. In tsetse, males emerged first so a gender-related appetence could not be excluded. No sex-related feeding differences in feeding were found for testse (GLM, P>0.05) so data for the sexes were pooled. Comparisons of percentage fed flies were made using a Bayesian GLM—the most appropriate model considering the zero-inflated distributions shown by the data sets. […] P-values were corrected using Holm's FWEC in multiple comparisons of data for each tick and fly species."}},
  "data": [
    {"compound": "O=C(O)c1cc(C(=O)O)c(C(=O)N(Cc2cccc(Oc3ccccc3)c2)[C@H]2CCCc3ccccc32)cc1C(=O)O", "note": "[A-317491, 5-[(3-phenoxyphenyl)methyl-[(1S)-1,2,3,4-tetrahydronaphthalen-1-yl]carbamoyl]benzene-1,2,4-tricarboxylic acid]", "values": [
      {"measurement": "% Fed females (mean ± s.e.m.)", "setting": "A. stephensi; 0.08 μM, feeding solution with 160 μM ATP", "value": "29.68 ± 7.14", "unit": "%"},
      {"measurement": "inhibition at 0.08 µM", "setting": "A. stephensi; Anopheles stephensi, 0.08 μM, Abbott's formula", "value": 59.3, "unit": "%"},
      {"measurement": "effect on feeding on solution containing ATP, in words", "setting": "A. stephensi", "value": "inhibited feeding"},
      {"measurement": "% Fed, Median", "setting": "Haematobia irritans; FFS + 10 μM", "value": 58.3, "unit": "%"},
      {"measurement": "% Fed, Median", "setting": "Haematobia irritans; FFS + 100 μM", "value": 41.5, "unit": "%"},
      {"measurement": "effect on feeding on solutions containing ATP, in words", "setting": "Haematobia irritans", "value": "inhibited feeding"}
    ]},
    {"compound": "Nc1ncnc2c1ncn2[C@@H]1O[C@H](COP(=O)(O)OP(=O)(O)OP(=O)(O)O)[C@@H](O)[C@H]1O", "note": "[ATP, Adenosine 5′-triphosphate]", "values": [
      {"measurement": "% Fed females (mean ± s.e.m.)", "setting": "A. stephensi; ATP 160 μM, positive control", "value": "72.96 ± 5.9", "unit": "%"},
      {"measurement": "ED95, feeding stimulant", "setting": "A. stephensi; feeding as a function of dose", "value": 160, "unit": "µM"}
    ]},
    {"compound": "Cc1ccc(C(=O)Nc2ccc(S(=O)(=O)O)c3cc(S(=O)(=O)O)cc(S(=O)(=O)O)c23)cc1NC(=O)c1cccc(NC(=O)Nc2cccc(C(=O)Nc3cc(C(=O)Nc4ccc(S(=O)(=O)O)c5cc(S(=O)(=O)O)cc(S(=O)(=O)O)c45)ccc3C)c2)c1", "note": "[Suramin]", "values": [
      {"measurement": "% Fed females (mean ± s.e.m.)", "setting": "A. stephensi; 80 μM, feeding solution with 160 μM ATP", "value": "30.04 ± 7.75", "unit": "%"},
      {"measurement": "inhibition at 80 µM", "setting": "A. stephensi; Anopheles stephensi, 80 μM, Abbott's formula", "value": 58.8, "unit": "%"},
      {"measurement": "% Fed, Median", "setting": "Haematobia irritans; FFS + 50 μM", "value": 61.5, "unit": "%"},
      {"measurement": "% Fed, Median", "setting": "Haematobia irritans; FFS + 100 μM", "value": 46.2, "unit": "%"}
    ]},
    {"compound": "Cc1nc(C)c(C)nc1C", "note": "[TMP, 2,3,5,6-tetramethylpyrazine]", "values": [
      {"measurement": "% Fed females (mean ± s.e.m.)", "setting": "A. stephensi; 0.8 μM, feeding solution with 160 μM ATP", "value": "26.67 ± 2.98", "unit": "%"},
      {"measurement": "inhibition at 0.8 µM", "setting": "A. stephensi; Anopheles stephensi, 0.8 μM, Abbott's formula", "value": 63.5, "unit": "%"},
      {"measurement": "effect on feeding on solution containing ATP, in words", "setting": "A. stephensi", "value": "inhibited feeding"},
      {"measurement": "% Fed, Median", "setting": "Haematobia irritans; FFS + 50 μM", "value": 50, "unit": "%"},
      {"measurement": "% Fed, Median", "setting": "Haematobia irritans; FFS + 100 μM", "value": 37.5, "unit": "%"},
      {"measurement": "% Fed, Median", "setting": "Haematobia irritans; FFS + 500 μM", "value": 0, "unit": "%"},
      {"measurement": "effect on feeding on solutions containing ATP, in words", "setting": "Haematobia irritans", "value": "inhibited feeding"}
    ]}
  ]
}
